Data from patent publication US20020055528A1, “Artemisinin analogs having antimalarial, antiproliferative, and antitumor activities and chemoselective methods of making the same” (priority 1999, published 2002).
Entries after “also recorded” stand apart in the source; their conditions may differ. Read-outs that look alike come from different tables or passages of the source.

Experiments:
[1] = system: SW-620; assay: NCI 60 cell line screen (SRB), Colon Cancer; type: cell-based
[2] = system: MDA-MB-435; assay: NCI 60 cell line screen (SRB), Breast Cancer; type: cell-based
[3] = system: NCI-H23; assay: NCI 60 cell line screen (SRB), Non-Small Cell Lung Cancer; type: cell-based
[4] = system: SK-OV-3; assay: NCI 60 cell line screen (SRB), Ovarian Cancer; type: cell-based
[5] = system: SR; assay: NCI 60 cell line screen (SRB), Leukemia; type: cell-based
[6] = system: SN12C; assay: NCI 60 cell line screen (SRB), Renal Cancer; type: cell-based
[7] = system: NCI/ADR-RES; assay: NCI 60 cell line screen (SRB), Breast Cancer; type: cell-based
[8] = system: HS 578T; assay: NCI 60 cell line screen (SRB), Breast Cancer; type: cell-based
[9] = system: SK-MEL2; assay: NCI 60 cell line screen (SRB), Melanoma; type: cell-based
[10] = system: MCF7; assay: NCI 60 cell line screen (SRB), Breast Cancer; type: cell-based
[11] = system: A498; assay: NCI 60 cell line screen (SRB), Renal Cancer; type: cell-based
[12] = system: MOLT-4
Method: (§1) The screening assay is performed on 96-well microtitre plates. Relatively high initial inoculation densities are used, in order to permit measurement of “time-zero” values and to enhance the screen's ability to detect and provide some differentiation between antiproliferative and cytotoxic response parameters. […] The inoculated microtitre plates are pre-incubated for 24 hours at 37θC prior to drug additions. The five drug dilutions tested routinely range from 10^−4 to 10^−8 molar. Higher or lower concentration ranges may be selected on a nonroutine basis if appropriate solubility and/or prior biological information or other screening data so dictate. Duplicate wells are prepared for all concentrations, (concentration is often denoted by placing brackets around a number); “time-zero” and “no drug” controls are also provided for each test. The minimum amount of compound required for a one-time evaluation in the routine screen can be calculated from the knowledge that each test requires a total of approximately 40 ml (0.04 liter) of cell culture medium containing the highest desired drug concentration. Thus, the amount (grams) of sample required (assuming an upper test concentration limit of 10^−4 M) is: molecular weight of compound×[…]. After a 48 hour incubation (37θC) with the test compound, the cells are fixed in situ to the bottoms of the microtitre wells by addition of 50 ul of either 50% trichloroacetic acid (for adherent cell lines) or 80% trichloroacetic acid (for settled cell suspension lines), followed by incubation for 60 minutes at 4θC. The cellular protein in each well is assayed using a sulforhodamine B (SRB) stain procedure. Briefly, after discarding the supernatants, the microtitre plates are washed 5 times with deionized water and air-dried. One hundred microliters of SRB solution (0.4% w/v in 1% acetic acid) is added to each microtitre well and incubated for 10 minutes at room temperature. Unbound SRB is removed by washing 5 times with 1 % acetic acid. The plates are air-dried, the bound stain is solubilized with Tris buffer, and the optical densities read at 515 nm. SRB is a bright pink anionic dye which, in dilute acetic acid, binds electrostatically to the basic amino acids of TCA-fixed cells. Cryopreserved master stocks of all the lines are maintained, and cultures used for screening are replaced from the master stock after no more than twenty passages in the screening laboratory. The cell line panel consists of 60 lines, organized into nine, disease-related subpanels including leukemia, non-small-cell lung cancer, colon, CNS, melanoma, ovarian, renal, prostate and breast cancers.
(§2) The response parameters G150 and LC50 are interpolated values representing the concentrations at which the percentage growth (PG) is +50 and −50, respectively:
(§3) GI50 is the concentration for which the PG=+50. At this value the increase from time tzero, in the number or mass of cells in the test well is only 50% as much as the corresponding increase in the control well during this period of the experiment, see Table II. A drug effect of this intensity is interpreted as primary growth inhibition.
(§4) TGI is the concentration for which PG=0. At this value the number or mass of cells in the well at the end of the experiment equals the number or mass of cells in the well at time tzero, see Table III. A drug effect of this intensity is regarded as cytostasis.
(§5) LC50 is the concentration for which the PG=−50. At this value, the number or mass of cells in the test well at the end of the experiment is half that at time tzero, see Table IV. This is interpreted as cytotoxicity.

[13] = system: 60 cell line panel; assay: NCI 60 cell line screen (SRB), whole panel; type: cell-based
Method: as §1, §2, §3, §4, §5

[14] = system: OVCAR-3; assay: NCI 60 cell line screen (SRB), Ovarian Cancer; type: cell-based; conditions: PG=0
[15] = system: SNB-19; assay: NCI 60 cell line screen (SRB), CNS Cancer; type: cell-based
[16] = system: K-562; assay: NCI 60 cell line screen (SRB), Leukemia; type: cell-based
[17] = system: MDA-MB231/ATCC; assay: NCI 60 cell line screen (SRB), Breast Cancer; type: cell-based; conditions: MDA- (first line of MDA-MB231/ATCC)
[18] = system: NCI-H322M; assay: NCI 60 cell line screen (SRB), Non-Small Cell Lung Cancer; type: cell-based
[19] = system: UACC-62; assay: NCI 60 cell line screen (SRB), Melanoma; type: cell-based

SMILES: CC1=C(C=Cc2cccc(C=CC3=C(C)C4CCC(C)C5CCC6(C)OOC45C(O3)O6)c2)OC2OC3(C)CCC4C(C)CCC1C24OO3 (centres unmarked) [VII-g]
- Log10TGI ([1]; PG=0): >−4.00 log10M
- Log10GI50 ([1]; PG=+50): −7.22 log10M
- Log10TGI ([2]; MDA-MB-435, PG=0): >−4.00 log10M
- Log10GI50 ([2]; MDA-MB−435, PG=+50): −6.57 log10M
- Log10GI50 ([2]; Table IV (LC50, PG=−50), MDA-MB-435): >−4.00 log10M
- Log10TGI ([3]; PG=0): −4.06 log10M
- log10 GI50 or LC50 (see conditions) ([3]; PG=+50): −5.92 log10M
- log10 GI50 or LC50 (see conditions) ([3]; Table IV (LC50, PG=−50)): >−4.00 log10M
- Log10TGI ([4]; PG=0): >−4.00 log10M
- Log10GI50 ([4]; PG=+50): −5.05 log10M
- Log10GI50 ([4]; Table IV (LC50, PG=−50)): >−4.00 log10M
- Log10TGI ([5]; PG=0): −7.42 log10M
- Log10GI50 ([5]; PG=+50): −7.42 log10M
- Log10GI50 ([5]; Table IV (LC50, PG=−50)): >−4.00 log10M
- Log10TGI ([6]; SN12C, PG=0): >−4.00 log10M
- Log10GI50 ([6]; SNI2C, PG=+50): −6.69 log10M
- Log10GI50 ([6]; Table IV (LC50, PG=−50), SN12C): >−4.00 log10M
- Log10TGI ([7]; PG=0): >−4.00 log10M
- Log10GI50 ([7]; PG=+50): −5.27 log10M
- Log10GI50 ([7]; Table IV (LC50, PG=−50)): >−4.00 log10M
- Log10TGI ([8]; PG=0): −4.32 log10M
- Log10GI50 ([8]; PG=+50): −7.14 log10M
- Log10GI50 ([8]; Table IV (LC50, PG=−50)): >−4.00 log10M
- Log10TGI ([9]; PG=0): >−4.00 log10M
- Log10 GI50 or LC50 (per conditions) ([9]; PG=+50): −6.39 log10M
- Log10 GI50 or LC50 (per conditions) ([9]; Table IV (LC50, PG=−50)): >−4.00 log10M
- Log10TGI ([10]; PG=0): >−4.00 log10M
- Log10GI50 ([10]; PG=+50): −6.63 log10M
- Log10GI50 ([10]; Table IV (LC50, PG=−50)): >−4.00 log10M
- Log10TGI ([11]; PG=0): −4.05 log10M
- Log10GI50 ([11]; PG=+50): −6.04 log10M
- Log10GI50 ([11]; Table IV (LC50, PG=−50)): >−4.00 log10M
- drug concentration for cytotoxicity (percentage growth −50) [12]: greater than 10^−4 M
- drug concentration for primary growth inhibition (percentage growth +50) ([12]; MOLT-4, FIGS. 6a-6e): > 10^−7 molar
- Log10GI50 ([12]; MOLT-4, PG=+50): −7.30 log10M
- Log10TGI ([12]; MOLT−4, PG=0): −7.30 log10M
- Log10GI50 ([12]; Table IV (LC50, PG=−50), MOLT−4): >−4.00 log10M
- MG MID of Log10GI50 (Table IV) ([13]; Table IV (LC50), mean over the panel): −4.02 log10M
- Delta of Log10GI50 (Table IV) ([13]; Table IV (LC50), panel summary): 0.94
- Range of Log10GI50 (Table IV) ([13]; Table IV (LC50), panel summary): 0.96
- potency in words, compared with artemisinin and paclitaxel ([13]; Tables II, III and IV): in most instances are as potent and in some instances more potent than paclitaxel; also recorded: more potent than artemisinin and equivalent to and in many instances higher in potency than paclitaxel
- MG MID of Log10GI50 ([13]; mean over the panel): −6.58 log10M
- MG MID of Log10TGI ([13]; mean over the panel): −4.32 log10M
- Delta of Log10GI50 ([13]; panel summary): 0.93
- Delta of Log10TGI ([13]; panel summary): 2.51
- Range of Log10GI50 ([13]; panel summary): 2.60
- Range of Log10TGI ([13]; panel summary): 2.82
- Log10TGI [14]: >−4.00 log10M
- Log10TGI ([15]; PG=0): >−4.00 log10M
- Log10GI50 or Log10LC50 (see condition) ([15]; PG=+50): −6.48 log10M
- Log10GI50 or Log10LC50 (see condition) ([15]; Table IV (LC50, PG=−50)): >−4.00 log10M
- Log10TGI ([16]; PG=0): −7.31 log10M
- Log10GI50 ([16]; PG=+50): −7.31 log10M
- Log10GI50 ([16]; Table IV (LC50, PG=−50)): >−4.00 log10M
- Log10TGI ([17]; PG=0): −4.74 log10M
- Log10 GI50 or LC50 (per conditions) ([17]; PG=+50): −6.07 log10M
- Log10 GI50 or LC50 (per conditions) ([17]; Table IV (LC50, PG=−50)): >−4.00 log10M
- Log10TGI ([18]; PG=0): −4.87 log10M
- Log10GI50 ([18]; PG=+50): −7.42 log10M
- Log10TGI ([19]; PG=0): >−4.00 log10M
- Log10GI50 ([19]; PG=+50): −5.46 log10M
- Log10GI50 ([19]; Table IV (LC50, PG=−50)): >−4.00 log10M
